In patent EP4722219A1 (Gan & Lee Pharmaceuticals Co., Ltd., priority 2023, dated 2024):

What follows are compounds tested against CRBN protein (Homo sapiens, UniProt Q96SW2) (assay: Binding activity to E3 ubiquitin ligase CRBN (HTRF competitive binding kit, Thalidomide-Red)). Settings: not given.
Excerpt: Binding activity of the E3 ligase inhibitor disclosed in the present invention to E3 ubiquitin ligase CRBN
CRBN binding activity test kit (CEREBLON BINDING KITS (PE, 64BD CRBN PEG).
The detection is based on homogeneous time-resolved fluorescence (HTRF) technology.
This kit uses a europium-labeled GST antibody (GST Eu Cryptate Antibody) as the donor and XL665-labeled thalidomide (Thalidomide-Red reagent) as the receptor. The donor binds to the GST-tagged CRBN protein.
The donor and receptor were each diluted 50-fold using the buffer provided in the kit (PROTAC binding buffer 1). The CRBN protein was diluted 45-fold. An 8mM solution of the compound disclosed herein was diluted 10-fold using the diluent provided in the kit (1X diluent), followed by 7 successive 5-fold serial dilutions of the resulting solution.
The ratio of the acceptor and donor emission signals was calculated for each individual well.
IC50 values was calculated based on compound concentration, Ratio, and coefficient of variation using GraphPad Prism.

Compound	IC50
COc1c(C(=O)N[C@H]2CCC(=O)NC2=O)ccc2c1OC[C@H]1CNCCN21 [Compound B6, (R)-N-((S)-2,6-Dioxyhesperidin-3-yl)-7-methoxy-1,2,3,4,4a,5-hexahydrobenzo[b]pyrazino[1,2-d][1,4]oxazine-8-carboxamide]	49.1 µM
COc1cc2c(cc1C(=O)N[C@H]1CCC(=O)NC1=O)COC[C@H]1CNCCN21 [Compound B10, (R)-N-((S)-2,6-Dioxopiperidin-3-yl)-10-methoxy-1,2,3,4,4a,5-hexahydro-7H-benzo[e]pyrazino[2,1-c][1,4]oxacyclopropane-9-amide]	22.4 µM
Cn1c(=O)n(C2CCC(=O)NC2=O)c2ccc3c(c21)C1(CCNCC1)CO3 (centres unmarked) [Compound D4, 3-(1-Methyl-2-oxo-1,2-dihydro-3H,7H-spiro[benzofuran[4,5-d]imidazole-8,4'-piperidine]-3-yl)piperidine-2,6-dione]	2.3 µM
O=C1CC[C@H](NC(=O)c2ccc3c(c2F)OC[C@H]2CNCCN32)C(=O)N1 [Compound B5, (R)-N-((S)-2,6-Dioxyhesperidin-3-yl)-7-fluoro-1,2,3,4,4,4a,5-hexahydrobenzo[b]pyrazino[1,2-d][1,4]oxazine-8-carboxamide]	60 µM
Cn1c(=O)n(C2CCC(=O)NC2=O)c2cc3c(cc21)OC1(CCNCC1)CC3 (centres unmarked) [Compound D5]	0.66 µM
COc1cc2c(cc1C(=O)N[C@H]1CCC(=O)NC1=O)OC[C@H]1CNCCN21 [Compound B4, (R)-N-((S)-2,6-Dioxyhesperidin-3-yl)-O-9-methoxy-1,2,3,4,4a,5-hexahydrobenzo[b]pyrazino[1,2-d][1,4]oxazine-8-carboxamide]	10.9 µM
COc1cc2c(cc1C(=O)N[C@H]1CCC(=O)NC1=O)OCC[C@H]1CNCCN21 [Compound B9, (S)-N-((S)-2,6-Dioxopiperidin-3-yl)-10-methoxy-2,3,4,4a,5,6-hexahydro-1H-benzo[b]pyrazine[1,2-d][1,4]oxazepine-9-carboxamide]	13 µM
O=C1CC[C@H](NC(=O)c2ccc3c(c2)OC[C@@H]2CNCCN32)C(=O)N1 [Compound B1]	40.3 µM
COc1cc2c(cc1C(=O)N[C@H]1CCC(=O)NC1=O)OCC21CCNCC1 [Compound A10, (S)-N-(2,6-dioxohesperidin-3-yl)-5-methoxy-2H-spiro[benzofuran-3,4'-piperidine]-6-carboxamide]	24.5 µM
COc1cc2c(cc1C(=O)N[C@H]1CCC(=O)NC1=O)OC1(CCNCC1)CC2 [Compound A12, (S)-N-(2,6-dioxohesperidin-3-yl)-6-methoxyspiro[chroman-2,4'-pyridine]-7-carboxamide]	20.3 µM
O=C1CC[C@H](NC(=O)c2cc3c(cc2F)CCC2(CNC2)O3)C(=O)N1 [Compound A7, (S)-N-(2,6-dioxopiperidin-3-yl)-6-fluoro-spiroazetidine-3,2-dihydropyridine-7-carboxamide]	27.4 µM

Same assay, conditions: competition with XL665-labeled thalidomide for GST-tagged CRBN protein, HTRF, 3 hours at room temperature

Compound	IC50
O=C1CCC(Nc2ccc3c(c2)OC2(CCNCC2)CC3)C(=O)N1 (centres unmarked) [Compound C4, 3-(Spiro[2,4'-piperidino]-7-ylamino)piperidine-2,6-dione]	10.1 µM
CN(C(=O)c1ccc2c(c1)OC[C@H]1CNCCN21)[C@H]1CCC(=O)NC1=O [Compound B7, (R)-N-((S)-2,6-Dioxyhesperidin-3-yl)-N-methyl-1,2,3,4,4a,5-hexahydrobenzo[b]pyrazino[1,2-d][1,4]oxazine-8-carboxamide]	5.32 µM
COc1c(C(=O)N[C@H]2CCC(=O)NC2=O)ccc2c1OCC21CCNCC1 [Compound A8, (S)-N-(2,6-dioxohesperidin-3-yl)-7-methoxy-2H-spiro[benzofuran-3,4'-piperidine]-6-carboxamide]	24.6 µM
O=C1CCC(Nc2ccc3c(c2)CCC2(CCNCC2)O3)C(=O)N1 (centres unmarked) [Compound C3]	5.53 µM
COc1cc2c(cc1C(=O)N[C@H]1CCC(=O)NC1=O)CCC1(CCNCC1)O2 [Compound A11, (S)-N-(2,6-dioxyhesperidin-3-yl)-7-methoxyspiro[chroman-2,4'-piperidine]-6-carboxamide]	14.4 µM

Same assay, conditions: competition with XL665-labeled thalidomide for GST-tagged CRBN protein, HTRF, 3 hours at room temperature; read-out: IC50

IC50	Compound
16.4 µM	O=C1CCC(Nc2ccc3c(c2)CC2(CCNCC2)O3)C(=O)N1 (centres unmarked) [Compound C8, 3-((3H-spiro[benzofuran-2,4'-piperidine]-5-yl)amino)piperidine-2,6-dione]
0.4 µM	Cn1c(=O)n(C2CCC(=O)NC2=O)c2ccc3c(c21)OC[C@H]1CNCCN31 (some centres unmarked) [Compound D7]
2.06 µM	CN(c1ccc2c(c1)OC[C@H]1CNCCN21)C1CCC(=O)NC1=O (stereo partly drawn) [Compound C10, 3-(((R)-1,2,3,4,4a,5-Hexahydrobenzo[b]pyrazino[1,2-d][1,4]oxazine-8-yl)(methyl)amino)piperidine-2,6-dione]
2.16 µM	O=C1CCC(Nc2ccc3c(c2)OC[C@@H]2CNCCN32)C(=O)N1 (stereo partly drawn) [Compound C16, 3-(((S)-1,2,3,4,4a,5-hexahydrobenzo[b]pyrazine[1,2-d][1,4]oxazine-8-yl)amino)piperidine-2,6-dione]
12.8 µM	O=C1CCC(Nc2ccc3c(c2)N2CCNC[C@@H]2CO3)C(=O)N1 (stereo partly drawn) [Compound C9, 3-(((R)-1,2,3,4,4a,5-Hexahydrobenzo[b]pyrazine[1,2-d][1,4]oxazine-9-yl)amino)piperidine-2,6-dione]
0.55 µM	Cn1c(=O)n(C2CCC(=O)NC2=O)c2ccc3c(c21)OC[C@H]1CNCCN31 (stereo in doubt) [Compound D6, 3-((R)-3-Methyl-2-oxo-2,3,5,5a,6,7,8,9-octahydro-1H-imidazo[4',5':5,6]benzo[1,2-b]pyrazino[1,2-d][1,4]oxazine-1-yl)piperidine-2,6-dione]
0.65 µM	O=C1CCC(N2Cc3c(ccc4c3OCC43CCC4(CC3)CNC4)C2=O)C(=O)N1 (centres unmarked) [Compound D9, 3-(6''-oxo-6''-,8''-dihydro-2''-H,7''-H-dipyrazolo[azetidin-3,1'-cyclohexane-4'-, 3"-furan[2,3-e]isoindole]-7"-yl)piperidine-2,6-dione]
0.21 µM	O=C1CCC(n2c(=O)n3c4c(cccc42)NCC3)C(=O)N1 (centres unmarked) [Compound D3, 3-(2-oxo-5,6-dihydro-4H-imidazo[1,5,4-de]quinoxalin-1(2H)-yl)piperidine-2,6-dione]
0.028 µM	Cn1c(=O)n(C2CCC(=O)NC2=O)c2ccc3c(c21)OCC31CCNCC1 (centres unmarked) [Compound D2, 3-(1-Methyl-2-oxo-1,2-dihydro-3H,7H-spiro[benzofuro[6,7-d]imidazole-6,4'-piperidine]-3-yl)piperidine-2,6-dione]
10.2 µM	O=C1CCC(Nc2ccc3c(c2)OC2(CC3)CNC2)C(=O)N1 (centres unmarked) [Compound C7, 3-(Spiro[azetidin-3,2'-chroman]-7'-ylamino)piperidine-2,6-dione]
5.45 µM	O=C1CCC(Nc2ccc3c(c2)OC2(CCNCC2)C3)C(=O)N1 (centres unmarked) [Compound C5, 3-((3H-spiro[benzofuran-2,4'-piperidine]-6-yl)amino)piperidine-2,6-dione]
21.1 µM	O=C1CCC(Nc2ccc3c(c2)N2CCNC[C@@H]2CCO3)C(=O)N1 (stereo partly drawn) [Compound C11, 3-(((S)-2,3,4,4a,5,6-Hexahydro-1H-benzo[b]pyrazine[1,2-d][1,4]oxacyclopropane-10-yl)amino)piperidine-2,6-dione]
90.5 µM	O=C1CCC(Nc2ccc3c(c2)C2(CCNCC2)CO3)C(=O)N1 (centres unmarked) [Compound C2, 3-((2H-spiro[benzofuran-3,4'-piperidine]-5-yl)amino)piperidine-2,6-dione]
1.9 µM	O=C1CCC(Nc2ccc3c(c2)OCC32CCNCC2)C(=O)N1 (centres unmarked) [Compound C1]

The next lines start with the compound.

Compound	IC50
O=C1CC[C@H](NC(=O)c2cc3c(cc2F)CCC2(CCNCC2)O3)C(=O)N1 [Compound A6, (S)-N-(2,6-dioxopiperidin-3-yl)-6-fluorospiro[chroman-2,4'-piperidine]-7-carboxamide]	35.3 µM
O=C1CC[C@H](NC(=O)c2c(F)ccc3c2OCC32CCNCC2)C(=O)N1 [Compound A2, (S)-N-(2,6-dioxopiperidin-3-yl)-6-fluoro-2H-spiro[benzofuran-3,4'-piperidine]-7-carboxamide]	11.9 µM
O=C1CC[C@H](NC(=O)c2cc3c(cc2F)C2(CCNCC2)CO3)C(=O)N1 [Compound A4, (S)-N-(2,6-dioxopiperidin-3-yl)-5-fluoro-2H-spiro[benzofuran-3,4'-piperidine]-6-carboxamide]	23.5 µM
O=C1CC[C@H](NC(=O)c2ccc3c(c2F)OCC32CCNCC2)C(=O)N1 [Compound A1, (S)-N-(2,6-dioxopiperidin-3-yl)-7-fluoro-2H-spiro[benzofuran-3,4'-piperidine]-6-carboxamide]	15.5 µM
(R) -N-((S)-2,6-Dioxyhesperidin-3-yl)-9-methoxy-6-methyl-2,3,4,4a,5,6-hexahydro-1H-pyrazino[1,2-a]quinoline-8-carboxamide [Compound B12]	37.3 µM
O=C1CC[C@H](NC(=O)c2ccc3c(c2)OCC[C@H]2CNCCN32)C(=O)N1 [Compound B11, (S)-N-((S)-2,6-Dioxopiperidin-3-yl)-2,3,4,4a,5,6-hexahydro-1H-benzo[b]pyrazino[1,2-d][1,4]oxazepine-9-carboxamide]	54.8 µM
COc1cc2c(cc1C(=O)N[C@H]1CCC(=O)NC1=O)C1(CCNCC1)CO2 [Compound A9, (S)-N-(2,6-dioxopiperidin-3-yl)-6-methoxy-2H-spiro[benzofuran-3,4'-piperidine]-5-carboxamide]	29.1 µM
O=C1CC[C@H](NC(=O)c2cc3c(cc2F)N2CCNC[C@H]2CO3)C(=O)N1 [Compound B8, (S)-N-((S)-2,6-Dioxyhesperidin-3-yl)-9-fluoro-1,2,3,4,4,4a,5-hexahydrobenzo[b]pyrazino[1,2-d][1,4]oxazine-8-carboxamide]	27 µM
